Experimental data as given in US6022901A, “Administration of resveratrol to prevent or treat restenosis following coronary intervention” (priority 1998, dated 2000).
Where “and” joins values, the source holds several entries; their conditions need not be identical. Equal values may be shown once.

Key:
[1] = system: cyclooxygenase; conditions: antipromotion activity; cited from earlier work
[2] = Clinical signs, cage observations twice daily in mice fed resveratrol; assay type: in vivo, mouse (Female Mice Strain A); conditions: any dose groups tested, 125-3000 mg/kg diet, 6 weeks
Description: (§1) This experimental work assesses the bioavailability of resveratrol when administered orally to Female Mice Strain A, establishes the relationship betveen oral administration of resveratrol and the plasma concentration of the female mice, assesses the method of analysis for mouse plasma and establishes the detection limit of resveratrol in animal plasma. The mice were received from the Biological Testing Branch, National Cancer Institute, at 4-6 weeks of age, each having a body weight of approximately 16 g.
(§2) After a quarantine period of one week, seven (7) groups each consisting of 10 mice were given resveratrol mixed with Teklad 4% Mouse/Rat chow ad libitum for a 6-week treatment period. As indicated in the table which follows, the concentration of resveratrol ranged from 125 mg/kg of diet to 3000 mg/kg of diet, with one group, as the control group, receiving only the mouse chow.
(§3) Parameters monitored during the course of the study included sided-cage observations twice daily and body weight. Blood samples were taken at the end of the treatment period of 6 weeks and kept frozen at -20° C.±5 until the time of analysis. All animals were sacrificed by asphyxiation.

[3] = antipromotion activity; cited from earlier work
[4] = Resveratrol concentration in mouse plasma after oral administration in diet (HPLC); assay type: in vivo, mouse (Female Mice Strain A); conditions: for concentration at 1008 h: plasma, po, 6 weeks
Description: as §1
After a quarantine period of one week, seven (7) groups each consisting of 10 mice were given resveratrol mixed with Teklad 4% Mouse/Rat chow ad libitum for a 6-week treatment period.
as §3
Plasma resveratrol concentration was determined by a liquid-liquid extraction method and reverse phase HPLC at Pharmascience Inc., Bio-analytical Division, Quebec, Canada, as follows. After addition of internal standard and buffer to plasma samples, ethyl acetate was then added. The extracted organic phase was transferred to a clean tube and dried with a nitrogen evaporator. The residue was reconstituted with the mobile phase and then injected to HPLC with UV at 310 nm.

[5] = system: hydroperoxidase; conditions: antipromotion activity; cited from earlier work
[6] = system: human promyelocytic leukemia cell; conditions: cited from earlier work
[7] = anti-initiation activity; cited from earlier work
[8] = Effect of Resveratrol on Body Weight of Female A/J Mice (diet, 6-week treatment); assay type: in vivo
Description: as §1, §2, §3

[9] = system: phase II drug-metabolizing enzymes; conditions: anti-initiation activity; cited from earlier work
[10] = anti-initiation activity; cited from earlier work; remark: listed apart in the source

Oc1ccc(C=Cc2cc(O)cc(O)c2)cc1 [resveratrol, 3,5,4'-trihydroxy stilbene]
inhibition of cyclooxygenase [1]: inhibited cyclooxygenase
compound-related clinical signs [2]: no compound-related clinical signs
anti-inflammatory effects [3]: mediated anti-inflammatory effects
oral absorption ([4]; mixed with chow): easily absorbed by the oral route
relationship between plasma resveratrol levels and amount administered ([4]; oral in diet, FIG. 1): linear relationship
concentration at 1008 h ([4]; 125 mg/kg diet, n=5): 10.8 ng/mL
concentration at 1008 h ([4]; 250 mg/kg diet, n=4): 87.9 ng/mL
concentration at 1008 h ([4]; 500 mg/kg diet, n=5): 56.8 ng/mL
concentration at 1008 h ([4]; 1000 mg/kg diet, n=5): 99 ng/mL
concentration at 1008 h ([4]; 2000 mg/kg diet, n=5): 178 ng/mL
concentration at 1008 h ([4]; 3000 mg/kg diet, n=5): 447 ng/mL
inhibition of hydroperoxidase [5]: inhibited cyclooxygenase and hydroperoxidase
human promyelocytic leukemia cell differentiation [6]: induced human promyelocytic leukemia cell differentiation
antimutagen activity [7]: antimutagen
mean body weight ([8]; 125 ppm, day 5, N=10): 16.4 Grams
mean body weight ([8]; 125 ppm, day 8, N=10): 16.6 Grams
mean body weight ([8]; 125 ppm, day 12, N=10): 17.3 Grams
mean body weight ([8]; 125 ppm, day 15, N=10): 18.0 Grams
mean body weight ([8]; 125 ppm, day 19, N=10): 18.4 Grams
mean body weight ([8]; 125 ppm, day 22, N=10): 18.7 Grams
mean body weight ([8]; 125 ppm, day 26, N=10): 19.0 Grams
mean body weight ([8]; 125 ppm, day 29, N=10): 19.0 Grams
mean body weight ([8]; 125 ppm, day 33, N=10): 19.4 Grams
mean body weight ([8]; 125 ppm, day 36, N=10): 19.3 Grams
mean body weight ([8]; 125 ppm, day 40, N=10): 19.2 Grams
mean body weight ([8]; 125 ppm, day 42, N=10): 19.7 Grams
mean body weight ([8]; 250 ppm, day 5, N=10): 16.2 Grams
mean body weight ([8]; 250 ppm, day 8, N=10): 16.8 Grams
mean body weight ([8]; 250 ppm, day 12, N=10): 17.7 Grams
mean body weight ([8]; 250 ppm, day 15, N=10): 18.4 Grams
mean body weight ([8]; 250 ppm, day 19, N=10): 18.9 Grams
mean body weight ([8]; 250 ppm, day 22, N=10): 19.0 Grams
mean body weight ([8]; 250 ppm, day 26, N=10): 19.3 Grams
mean body weight ([8]; 250 ppm, day 29, N=10): 19.4 Grams
mean body weight ([8]; 250 ppm, day 33, N=10): 19.7 Grams
mean body weight ([8]; 250 ppm, day 36, N=10): 19.6 Grams
mean body weight ([8]; 250 ppm, day 40, N=10): 19.9 Grams
mean body weight ([8]; 250 ppm, day 42, N=10): 19.9 Grams
mean body weight ([8]; 500 ppm, day 5, N=10): 16.6 Grams
mean body weight ([8]; 500 ppm, day 8, N=10): 17.5 Grams
mean body weight ([8]; 500 ppm, day 12, N=10): 17.8 Grams
mean body weight ([8]; 500 ppm, day 15, N=10): 18.3 Grams
mean body weight ([8]; 500 ppm, day 19, N=10): 18.7 Grams
mean body weight ([8]; 500 ppm, day 22, N=10): 19.2 Grams
mean body weight ([8]; 500 ppm, day 26, N=10): 19.4 Grams
mean body weight ([8]; 500 ppm, day 29, N=10): 19.8 Grams
mean body weight ([8]; 500 ppm, day 33, N=10): 19.8 Grams
mean body weight ([8]; 500 ppm, day 36, N=10): 20.1 Grams
mean body weight ([8]; 500 ppm, day 40, N=10): 20.0 Grams
mean body weight ([8]; 500 ppm, day 42, N=10): 20.2 Grams
mean body weight ([8]; 1000 ppm, day 5, N=10): 16.1 Grams
mean body weight ([8]; 1000 ppm, day 8, N=10): 16.9 Grams
mean body weight ([8]; 1000 ppm, day 12, N=10): 17.4 Grams
mean body weight ([8]; 1000 ppm, day 15, N=10): 18.2 Grams
mean body weight ([8]; 1000 ppm, day 19, N=10): 18.1 Grams
mean body weight ([8]; 1000 ppm, day 22, N=10): 18.8 Grams
mean body weight ([8]; 1000 ppm, day 26, N=10): 19.0 Grams
mean body weight ([8]; 1000 ppm, day 29, N=10): 19.3 Grams
mean body weight ([8]; 1000 ppm, day 33, N=10): 19.5 Grams
mean body weight ([8]; 1000 ppm, day 36, N=10): 19.8 Grams
mean body weight ([8]; 1000 ppm, day 40, N=10): 19.5 Grams
mean body weight ([8]; 1000 ppm, day 42, N=10): 19.6 Grams
mean body weight ([8]; 2000 ppm, day 5, N=10): 16.3 Grams
individual body weight ([8]; 2000 ppm, day 5, animals 51-60): 17.8 Grams and 15.7 Grams and 16.1 Grams and 17.0 Grams and 13.7 Grams
mean body weight ([8]; 2000 ppm, day 8, N=10): 16.6 Grams
individual body weight ([8]; 2000 ppm, day 8, animals 51-60): 19.1 Grams and 15.8 Grams and 14.8 Grams and 16.5 Grams and 13.6 Grams
mean body weight ([8]; 2000 ppm, day 12, N=10): 17.7 Grams
individual body weight ([8]; 2000 ppm, day 12, animals 51-60): 19.5 Grams and 16.9 Grams and 17.0 Grams and 19.2 Grams and 18.1 Grams and 15.3 Grams
mean body weight ([8]; 2000 ppm, day 15, N=10): 17.7 Grams
individual body weight ([8]; 2000 ppm, day 15, animals 51-60): 19.6 Grams and 16.9 Grams and 16.7 Grams and 19.0 Grams and 17.7 Grams and 14.5 Grams
mean body weight ([8]; 2000 ppm, day 19, N=10): 18.8 Grams
individual body weight ([8]; 2000 ppm, day 19, animals 51-60): 20.1 Grams and 18.4 Grams and 19.5 Grams and 15.7 Grams
mean body weight ([8]; 2000 ppm, day 22, N=10): 19.1 Grams
individual body weight ([8]; 2000 ppm, day 22, animals 51-60): 20.3 Grams and 18.8 Grams and 18.4 Grams and 20.9 Grams and 20.0 Grams and 16.3 Grams
mean body weight ([8]; 2000 ppm, day 26, N=10): 19.2 Grams
individual body weight ([8]; 2000 ppm, day 26, animals 51-60): 20.2 Grams and 19.0 Grams and 18.7 Grams and 20.7 Grams and 19.9 Grams and 16.0 Grams
mean body weight ([8]; 2000 ppm, day 29, N=10): 19.5 Grams
individual body weight ([8]; 2000 ppm, day 29, animals 51-60): 20.7 Grams and 19.5 Grams and 18.8 Grams and 21.4 Grams and 20.0 Grams and 16.1 Grams
mean body weight ([8]; 2000 ppm, day 33, N=10): 19.8 Grams
individual body weight ([8]; 2000 ppm, day 33, animals 51-60): 21.0 Grams and 19.8 Grams and 19.5 Grams and 21.2 Grams and 20.7 Grams and 16.6 Grams
mean body weight ([8]; 2000 ppm, day 36, N=10): 19.6 Grams
individual body weight ([8]; 2000 ppm, day 36, animals 51-60): 21.3 Grams and 18.4 Grams and 18.5 Grams and 20.4 Grams and 20.0 Grams and 16.7 Grams
mean body weight ([8]; 2000 ppm, day 40, N=10): 19.7 Grams
individual body weight ([8]; 2000 ppm, day 40, animals 51-60): 20.3 Grams and 19.9 Grams and 18.9 Grams and 21.0 Grams and 20.9 Grams and 17.2 Grams
mean body weight ([8]; 2000 ppm, day 42, N=10): 20.3 Grams
individual body weight ([8]; 2000 ppm, day 42, animals 51-60): 19.5 Grams and 21.7 Grams and 19.2 Grams and 21.9 Grams and 21.3 Grams and 18.0 Grams
mean body weight ([8]; group 7, 300 (ppm), day 5, N=10): 16.3 Grams
individual body weight ([8]; group 7, 300 (ppm), day 5, animals 61-70): 16.0 Grams and 14.9 Grams and 15.2 Grams
mean body weight ([8]; group 7, 300 (ppm), day 8, N=10): 17.1 Grams
individual body weight ([8]; group 7, 300 (ppm), day 8, animals 61-70): 16.8 Grams and 16.4 Grams and 16.1 Grams
mean body weight ([8]; group 7, 300 (ppm), day 12, N=10): 17.6 Grams
individual body weight ([8]; group 7, 300 (ppm), day 12, animals 61-70): 17.6 Grams and 17.5 Grams and 17.4 Grams
mean body weight ([8]; group 7, 300 (ppm), day 15, N=10): 17.1 Grams
individual body weight ([8]; group 7, 300 (ppm), day 15, animals 61-70): 16.9 Grams and 17.2 Grams
mean body weight ([8]; group 7, 300 (ppm), day 19, N=10): 18.7 Grams
individual body weight ([8]; group 7, 300 (ppm), day 19, animals 61-70): 18.8 Grams and 18.2 Grams
mean body weight ([8]; group 7, 300 (ppm), day 22, N=10): 19.1 Grams
individual body weight ([8]; group 7, 300 (ppm), day 22, animals 61-70): 18.5 Grams and 18.6 Grams
mean body weight ([8]; group 7, 300 (ppm), day 26, N=10): 19.1 Grams
individual body weight ([8]; group 7, 300 (ppm), day 26, animals 61-70): 18.6 Grams and 18.5 Grams
mean body weight ([8]; group 7, 300 (ppm), day 29, N=10): 18.9 Grams
individual body weight ([8]; group 7, 300 (ppm), day 29, animals 61-70): 18.8 Grams and 18.3 Grams
mean body weight ([8]; group 7, 300 (ppm), day 33, N=10): 19.5 Grams
individual body weight ([8]; group 7, 300 (ppm), day 33, animals 61-70): 18.7 Grams and 18.8 Grams
mean body weight ([8]; group 7, 300 (ppm), day 36, N=10): 19.9 Grams
individual body weight ([8]; group 7, 300 (ppm), day 36, animals 61-70): 19.4 Grams and 18.6 Grams
mean body weight ([8]; group 7, 300 (ppm), day 40, N=10): 19.6 Grams
individual body weight ([8]; group 7, 300 (ppm), day 40, animals 61-70): 19.3 Grams and 19.1 Grams
mean body weight ([8]; group 7, 300 (ppm), day 42, N=10): 20.1 Grams
individual body weight ([8]; group 7, 300 (ppm), day 42, animals 61-70): 19.1 Grams and 19.5 Grams
induction of phase II drug-metabolizing enzymes [9]: induced phase II drug-metabolizing enzymes
antioxidant activity [10]: acted as an antioxidant
